Reference: publication PMC9365363 (Clinical Cancer Research, 2022)
Read-outs that look alike come from different tables or passages of the source.

What was measured:
clinical = conditions: human, in vivo, po, 50 mg once daily
[1] = tested on: tyrosine phosphoproteome of GBM tumors; format: in vivo, human; conditions: 4 sunitinib-treated versus 7 control GBM tumors, cut-off P < 0.05
PDGFRB = PDGFRB (Homo sapiens, UniProt P09619); format: in vivo; conditions: known sunitinib target; 4 sunitinib-treated, 7 control tumors
Chain of PDGFRB (P09619 33-1106): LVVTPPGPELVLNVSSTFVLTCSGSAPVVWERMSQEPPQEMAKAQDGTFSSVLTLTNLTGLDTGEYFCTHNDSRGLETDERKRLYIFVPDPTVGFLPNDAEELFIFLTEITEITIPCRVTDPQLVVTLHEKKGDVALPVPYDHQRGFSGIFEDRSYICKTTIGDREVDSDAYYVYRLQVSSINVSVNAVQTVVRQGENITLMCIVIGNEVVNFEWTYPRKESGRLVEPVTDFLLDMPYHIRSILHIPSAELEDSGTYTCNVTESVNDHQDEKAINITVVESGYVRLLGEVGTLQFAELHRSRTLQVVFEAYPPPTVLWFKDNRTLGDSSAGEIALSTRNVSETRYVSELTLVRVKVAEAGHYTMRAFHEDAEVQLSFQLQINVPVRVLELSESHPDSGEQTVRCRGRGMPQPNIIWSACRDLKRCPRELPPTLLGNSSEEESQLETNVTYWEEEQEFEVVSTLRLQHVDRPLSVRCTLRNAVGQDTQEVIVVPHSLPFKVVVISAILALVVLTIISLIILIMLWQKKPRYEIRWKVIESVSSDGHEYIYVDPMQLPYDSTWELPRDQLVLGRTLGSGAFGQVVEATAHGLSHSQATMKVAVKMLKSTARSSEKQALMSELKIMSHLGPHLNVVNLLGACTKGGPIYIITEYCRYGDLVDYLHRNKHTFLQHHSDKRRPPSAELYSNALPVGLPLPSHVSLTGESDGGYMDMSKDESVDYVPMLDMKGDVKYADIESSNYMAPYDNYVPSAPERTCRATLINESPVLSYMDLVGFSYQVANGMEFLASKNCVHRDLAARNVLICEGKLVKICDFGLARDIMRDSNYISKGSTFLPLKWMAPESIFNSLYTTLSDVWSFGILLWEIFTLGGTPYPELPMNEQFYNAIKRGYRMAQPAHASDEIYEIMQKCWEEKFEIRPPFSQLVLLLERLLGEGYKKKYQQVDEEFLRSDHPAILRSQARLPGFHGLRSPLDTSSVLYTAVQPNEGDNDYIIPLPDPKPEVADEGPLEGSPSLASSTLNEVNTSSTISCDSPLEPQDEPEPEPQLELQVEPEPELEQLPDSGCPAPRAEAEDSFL

398 cancer cell lines = conditions: read-out: Geometric mean of the IC50, ref https://www.cancerrxgene.org/compound/Sunitinib/5/overview/ic50; cited from earlier work
recurrent GBM = conditions: sunitinib-treated patients with a recurrent GBM; cited from earlier work
GBM cell lines = assay: cells; format: cell-based; conditions: Homo sapiens, 72 h
[2] = 5 patients with GBM
PDGFRA = PDGFRA (Homo sapiens, UniProt P16234); format: in vivo; conditions: known sunitinib target; 4 sunitinib-treated, 7 control tumors
Chain of PDGFRA (P16234 24-1089): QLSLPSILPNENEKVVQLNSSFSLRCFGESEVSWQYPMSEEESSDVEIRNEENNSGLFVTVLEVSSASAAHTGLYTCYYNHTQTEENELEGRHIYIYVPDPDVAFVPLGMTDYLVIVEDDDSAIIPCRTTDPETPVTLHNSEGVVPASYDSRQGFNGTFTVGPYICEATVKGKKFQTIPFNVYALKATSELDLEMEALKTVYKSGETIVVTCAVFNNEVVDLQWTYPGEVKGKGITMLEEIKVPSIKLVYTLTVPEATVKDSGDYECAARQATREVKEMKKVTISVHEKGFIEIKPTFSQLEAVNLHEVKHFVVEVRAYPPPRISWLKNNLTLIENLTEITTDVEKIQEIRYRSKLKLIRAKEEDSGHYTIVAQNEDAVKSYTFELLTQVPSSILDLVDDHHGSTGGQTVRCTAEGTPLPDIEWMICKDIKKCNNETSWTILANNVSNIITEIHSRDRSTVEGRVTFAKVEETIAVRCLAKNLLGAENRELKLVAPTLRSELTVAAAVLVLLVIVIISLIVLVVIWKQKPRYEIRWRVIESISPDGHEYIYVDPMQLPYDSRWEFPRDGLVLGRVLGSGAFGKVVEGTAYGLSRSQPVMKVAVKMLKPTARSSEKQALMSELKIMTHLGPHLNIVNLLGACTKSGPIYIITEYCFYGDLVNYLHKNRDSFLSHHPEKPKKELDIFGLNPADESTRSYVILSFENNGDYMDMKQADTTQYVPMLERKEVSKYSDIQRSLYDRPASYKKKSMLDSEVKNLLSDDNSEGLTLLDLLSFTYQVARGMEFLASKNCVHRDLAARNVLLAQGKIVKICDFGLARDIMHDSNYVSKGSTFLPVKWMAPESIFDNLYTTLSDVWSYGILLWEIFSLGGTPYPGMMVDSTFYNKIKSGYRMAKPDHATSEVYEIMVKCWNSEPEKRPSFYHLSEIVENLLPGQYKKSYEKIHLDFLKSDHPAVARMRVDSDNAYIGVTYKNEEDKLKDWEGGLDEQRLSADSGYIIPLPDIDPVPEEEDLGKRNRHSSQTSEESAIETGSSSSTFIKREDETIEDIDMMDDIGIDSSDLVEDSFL

PTM signatures = tested on: PTM signatures; set-up: species or system human; conditions: in vivo
[3] = format: in vivo, human; conditions: all patients, last dose in the morning on the day of surgery

**Q.** Which results are given for `CCN(CC)CCNC(=O)c1c(C)[nH]c(/C=C2\C(=O)Nc3ccc(F)cc32)c1C` [sunitinib]?
**A.** Kp (clinical): 10; concentration at 11 days (clinical): 111 nM; concentration at 12 days (clinical): 255 nM; concentration at 13 days (clinical): 479 nM; concentration at 14 days (clinical): 105 nM; concentration at 18 days (clinical): 194 nM; Number of significantly downregulated phosphopeptides [1]: 23; Number of significantly upregulated phosphopeptides [1]: 108; Kinase activity of PDGFRB (INKA), sunitinib-treated versus control (PDGFRB): low and not significantly different between the groups; IC50 (398 cancer cell lines): 11.6 µM; Tumor response and clinical benefit (recurrent GBM): no tumor response nor clinical benefit; IC50 (GBM cell lines; read-out: Median IC50 in GBM cell lines): 5.4 µM; IC50 (GBM cell lines; read-out: Range of IC50 in GBM cell lines): 3 to 8.5 µM; Relation between sunitinib tumor accumulation and use of dexamethasone and anticonvulsants [2]: No relation; Kinase activity of PDGFRA (INKA), sunitinib-treated versus control (PDGFRA): low and not significantly different between the groups; Moderately significant enriched signatures (PTM-SEA) (PTM signatures): Two moderately significant NetPath derived signatures; Strongly significantly enriched phosphosite signatures (PTM-SEA) (PTM signatures): three strongly significantly enriched phosphosite signatures; Perioperative complications of tumor resection after preoperative treatment [3]: without perioperative complications
